Patent US12077508B2, “Inhibitors of the Notch transcriptional activation complex kinase (“NACK”) and methods for use of the same” (UNIVERSITY OF MIAMI, priority 2018, dated 2024)
“Also recorded” adds a separate entry of the source. Read-outs that look alike come from different tables or passages of the source.

What was measured:
OE33 cell line = assay: Colony formation assay in OE33 cells; assay type: cell-based, human; conditions: for EC50: Homo sapiens, read-out: EC50 colony formation titration assay; for OE33 colony formation: cells treated every other day, FIGS. 5B, 5C
Experimental: (§1) A cell based colony formation assay was used in these experiments. Normal mouse mammary epithelia HC11 cells have little or no endogenous NACK expression, and NACK knockdown had no effect on the growth of HC11 cells (FIG. 5A, lower panel). […] Knockdown of NACK was confirmed by western blot and qPCR (FIGS. 1D and 1E). […] Therefore, compounds that affect OE33 colony formation but not HC11 were desired. In order to screen the compounds, cells were treated with test compounds every other day.
(§2) Colony formation assay was utilized to determine the effect of small molecule inhibitors on cell proliferation. In general, different cell lines (NACK dependent or independent) will be seeded in 6-well plates at a density of 2000 cells per well and allowed to attach overnight. Inhibitor treatment commenced 24 hours post seeding, and the media containing inhibitor was changed every 48 hours thereafter. After 168 hours, colonies were be stained with Crystal Violet (Millipore) and counted.

[1] = target: T1, NACK binding to the Notch transcription complex (Mus musculus, UniProt Q571I4); assay: CSL-DNA affinity precipitation (CSL-DAP) assay; assay type: cell-based; conditions: 293T cells transfected with N1ICD, Maml1, NACK; 2 hours treatment; FIG. 6A
T1 construct: expressed in transfected cells; host or cells: 293T
T1 sequence (Q571I4 1-1373): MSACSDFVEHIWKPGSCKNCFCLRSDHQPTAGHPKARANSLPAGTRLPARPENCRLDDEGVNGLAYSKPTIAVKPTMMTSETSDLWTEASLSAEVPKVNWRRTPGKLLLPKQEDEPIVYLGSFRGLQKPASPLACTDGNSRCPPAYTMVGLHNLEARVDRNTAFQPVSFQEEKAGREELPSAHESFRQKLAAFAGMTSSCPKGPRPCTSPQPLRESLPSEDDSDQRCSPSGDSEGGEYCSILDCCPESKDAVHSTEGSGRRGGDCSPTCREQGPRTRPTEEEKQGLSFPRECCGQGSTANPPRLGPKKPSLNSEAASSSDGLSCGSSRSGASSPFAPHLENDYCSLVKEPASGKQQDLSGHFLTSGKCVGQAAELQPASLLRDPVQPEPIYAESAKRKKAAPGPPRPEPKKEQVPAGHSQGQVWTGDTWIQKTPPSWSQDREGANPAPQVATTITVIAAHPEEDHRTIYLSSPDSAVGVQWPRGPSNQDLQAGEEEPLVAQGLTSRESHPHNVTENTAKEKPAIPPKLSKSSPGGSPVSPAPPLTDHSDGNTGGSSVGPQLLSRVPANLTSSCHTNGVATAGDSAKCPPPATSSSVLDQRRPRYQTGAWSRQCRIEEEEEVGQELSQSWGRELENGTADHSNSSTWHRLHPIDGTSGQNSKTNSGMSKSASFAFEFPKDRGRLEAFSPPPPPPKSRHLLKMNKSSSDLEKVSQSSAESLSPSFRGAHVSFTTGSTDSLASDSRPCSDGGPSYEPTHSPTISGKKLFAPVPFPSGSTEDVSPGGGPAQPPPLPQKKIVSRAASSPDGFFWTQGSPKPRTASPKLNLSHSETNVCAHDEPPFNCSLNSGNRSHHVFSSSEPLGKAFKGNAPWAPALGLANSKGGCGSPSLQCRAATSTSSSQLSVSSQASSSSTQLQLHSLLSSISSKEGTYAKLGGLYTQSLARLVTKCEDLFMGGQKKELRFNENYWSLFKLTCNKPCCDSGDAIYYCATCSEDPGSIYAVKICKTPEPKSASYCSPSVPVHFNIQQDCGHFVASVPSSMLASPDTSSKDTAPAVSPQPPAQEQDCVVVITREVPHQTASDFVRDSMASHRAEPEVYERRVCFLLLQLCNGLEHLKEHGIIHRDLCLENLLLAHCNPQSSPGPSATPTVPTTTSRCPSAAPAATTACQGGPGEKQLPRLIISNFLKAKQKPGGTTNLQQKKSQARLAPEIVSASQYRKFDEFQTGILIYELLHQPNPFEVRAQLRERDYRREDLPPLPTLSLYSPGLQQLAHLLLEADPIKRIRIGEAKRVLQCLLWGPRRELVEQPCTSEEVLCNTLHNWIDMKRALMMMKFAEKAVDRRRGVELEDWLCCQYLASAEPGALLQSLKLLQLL
Experimental: To determine the specificity of hit-to-lead compounds targeting NACK activity, it was evaluated whether iNACK can block NACK binding to the Notch complex by conducting CSL-DNA affinity precipitation (CSL-DAP) assay. […] In the CSL-DAP assay, 293T cells were co-transfected with N1^ICD, Maml1 and NACK. Transfections were performed using LipoJet transfection reagent (SL100468, SignaGen Laboratories) according to the manufacturer recommended protocol. After two days of transfection, cells were treated with compounds for 2 hours prior collecting the cell lysate. Cell lysates were incubated with DNA streptavidin beads. Proteins that bound to the beads were analyzed by Western blot.
Western blot was performed as described previously (See Weaver et al., Cancer Research 74, 4741-4751 (2014)). Primary antibodies were α-NACK (1:1,000; against aa209-287 of NACK and affinity purified), α-CSL (1:1,000; generated against full-length CSL and affinity purified), α-Maml1 (1:5,000; Cell Signaling Technology), α-cleaved-Notch1 (1:1,000; Cell Signaling Technology).

OE33 spheres = assay: Tumor sphere formation assay in OE33; assay type: cell-based, human; conditions: OE33; FIG. 7A
Experimental: In order to assess the effect of hit to lead compounds on the proliferation of stem cell like population of Notch/NACK dependent cells, the primary tumor spheres were treated with NACK inhibitor and allow the cells to be propagated as secondary cultures. To obtain tumor spheres, cells were cultured in DMEM/F12 with 2% B-27 serum-free supplement (17604-044; Invitrogen), 20 ng/mL epidermal growth factor (EGF; PHG0311L; Invitrogen), and 20 ng/mL basic fibroblastic growth factor (bFGF; PHG0266; Invitrogen) for 14 days. Resulting tumor spheres were examined and counted under the microscope. Furthermore, the tumor spheres were collected for further RT-qPCR analysis to test the effect of hit to lead compounds on the stem like target genes.

HC11 cells = assay: Colony formation assay in HC11 cells; assay type: cell-based, mouse; conditions: Notch/NACK independent cell line; FIG. 5B
Experimental: as §1, §2

Notch target genes = assay: RT-qPCR of Notch target genes in Notch/NACK-dependent cells; assay type: cell-based, human; conditions: for down regulation of Notch target genes (q-PCR profile): compared to Z271-0326, FIGS. 13A-13D
Experimental: To assess the effect of NACK inhibitor on Notch target gene transcription, Notch/NACK-dependent cell lines were treated with NACK inhibitors. The cells were also treated with DAPT as a positive control. DMSO treated cells served as a vehicle control for comparison. Gene expression was normalized to HPRT, and TBP served as a negative control to validate normalization.
Reverse transcription and qPCR analysis were performed as described previously (See Weaver et al., Cancer Research 74, 4741-4751 (2014)). Gene expression was normalized to the TATA-binding protein (“TBP”) gene. As a control, hypoxanthine phosphoribosyltransferase 1 (“HPRT”) gene expression was also monitored.

NACK = target: T2, NACK (Mus musculus, UniProt Q571I4); assay: Surface plasmon resonance (SPR) binding to GST tagged NACK
T2 sequence (Q571I4 1-1373): T1 sequence (Q571I4 1-1373)
Experimental: The interaction between inhibitor Z271-0326 and target NACK was characterized using surface plasmon resonance (SPR). For this purpose, GST tagged NACK was captured by a GST antibody that was previously immobilized onto the surface of the chip through standard amide coupling. The dissociation constants associated with binding of the compounds to NACK was determined using the equilibrium approach, which consists of plotting the equilibrium response (Req) as a function of concentration of the compound and fitting the data to a 1:1 binding model.
A GST capture kit (GE Healthcare) were utilized to covalently immobilize an anti-GST antibody, provided in the kit, to the sensor chip surface (CM5 chip, GE Healthcare) by following the manufacturer's instructions. Capture were performed by injecting GST-NACK (1 μg/μL) over the immobilized anti-GST antibody in Hepes buffer (10 mM Hepes, pH 7.5, 150 mM NaCl, 3 mM EDTA, 0.0005% NP-40) for 7 min at 10 μL/min. A reference flow cell was prepared by capturing GST following the procedure described above. […] Experiments were performed on a Biacore T200 instrument (GE Healthcare) at 25° C. Small molecule inhibitors binding to NACK were performed in 50 mM Tris buffer, pH 7.5, containing 150 mM NaCl, 10 mM MgCl2 and 5% DMSO (running buffer). The SPR signal arising from the sample was corrected for its respective control containing DMSO. Data visualization and analysis was performed using Biacore T200 software (GE Healthcare) and Origin 8.0 (OriginLab).

CC1CCN(C(=O)c2cnn3ccc(C4CCN(S(=O)(=O)c5ccccc5)CC4)cc23)CC1 [Compound Z271-0191]
EC50 (OE33 cell line; OE33, estimated, FIG. 6C): 3740 nM
OE33 colony formation (OE33 cell line): effectively inhibit OE33 colony formation
inhibition of NACK binding to the Notch transcription complex [1]: dramatically inhibit NACK binding to the NOTCH transcription complex
secondary sphere formation (OE33 spheres): less effective compared to Z271-0326
HC11 colony formation / viability (HC11 cells): but not HC11 cell
mRNA levels of Notch target genes Hes1 and Notch3 (Notch target genes; OE33, FIG. 6B): decrease the mRNA levels of Notch target genes Hes1 and Notch3

CCN(CC)C(=O)c1cnn2ccc(C3CCN(S(=O)(=O)c4ccc(NC(=O)OC)cc4)CC3)cc12 [Compound 7C, methyl N-[4-({4-[3-(diethylcarbamoyl)pyrazolo[1,5-a]pyridin-5-yl]piperidinyl}sulfonyl)phenyl]carbamate]
expression of oncogenes cMYC, CCND1, HES1 (Q-PCR) (Notch target genes; with respect to DMSO and Z271-0326, FIG. 16): downregulate oncogenes cMYC, CCND1, and HES1

Nc1ncnc2c1ncn2[C@@H]1O[C@H](COP(=O)(O)OP(=O)(O)NP(=O)(O)O)[C@@H](O)[C@H]1O [AMP-PNP]
Kd (NACK; SPR, FIG. 4C, read-out: binding constant): ~1500 nM
Kd (NACK; equilibrium approach, 1:1 binding model, 25° C., FIG. 10A, read-out: KD): 1500 ± 500 nM

O=C(c1cnn2ccc(C3CCN(S(=O)(=O)Cc4ccccc4)CC3)cc12)N1CCCCC1 [Compound Z271-0132]
selectivity between OE33 and HC11 cell lines (OE33 cell line; colony formation): displays no selectivity between OE33 and HC11 cell lines
inhibition of NACK binding to the Notch transcription complex [1]: dramatically inhibit NACK binding to the NOTCH transcription complex; also recorded: blocks binding of NACK to the ternary complex

CC(=O)Nc1ccc(S(=O)(=O)N2CCC(c3ccn4ncc(C(=O)N5CCC5)c4c3)CC2)cc1 [Compound 71C, N-[4-({4-[3-(azetidine-1-carbonyl)pyrazolo[1,5-a]pyridin-5-yl]piperidin-1-yl}sulfonyl)phenyl]acetamide]
EC50 (OE33 cell line; OE33, OE33 cell line, FIG. 18): 330 nM

CC(=O)Nc1ccc(S(=O)(=O)N2CCC(c3ccn4ncc(C(=O)N5CCCC5)c4c3)CC2)cc1 [Compound 7H, N-[4-({4-[3-(pyrrolidine-1-carbonyl)pyrazolo[1,5-a]pyridin-5-yl]piperidin-1-yl}sulfonyl)phenyl]acetamide]
down regulation of Notch target genes (q-PCR profile) (Notch target genes): performed the best in down regulating Notch target genes, even better than Z271-0326

N#Cc1cccc(NC(=O)N2CCC(c3ccn4ncc(C(=O)N5CCCCC5)c4c3)CC2)c1 [Compound Z270-0137]
OE33 colony formation (OE33 cell line): effectively inhibit OE33 colony formation
HC11 colony formation / viability (HC11 cells): but not HC11 cell

CC(C)(C)OC(=O)Nc1ccc(S(=O)(=O)N2CCC(c3ccn4ncc(C(=O)N5CCCC5)c4c3)CC2)cc1 [Compound 71B, tert-butyl N-[4-({4-[3-(pyrrolidine-1-carbonyl)pyrazolo[1,5-a]pyridin-5-yl]piperidin-1-yl}sulfonyl)phenyl]carbamate]
EC50 (OE33 cell line; OE33, OE33 cell line, FIG. 18): 608 nM

CC(=O)Nc1ccc(S(=O)(=O)N2CCC(c3ccn4ncc(C(=O)N5CCCCC5)c4c3)CC2)cc1 [Compound 7M, N-[4-({4-[3-(piperidine-1-carbonyl)pyrazolo[1,5-a]pyridin-5-yl]piperidin-1-yl}sulfonyl)phenyl]acetamide]
down regulation of Notch target genes (q-PCR profile) (Notch target genes): can also down regulate Notch target genes, but not as good as compound 7H
